Columns and labels:
[1] = tested on: antibodies in sera from SARS patients (sera 1a, 1b, 2, 6, 37, 62, London, SARS-yellow, SARS-green); assay type: binding, human; set-up: Binding of serum 6 to linear peptides of protein X1 of SARS-CoV Urbani / Binding of serum 37 to linear peptides of protein X1 of SARS-CoV Urbani / Binding of serum 6 to looped/cyclic peptide (PEPSCAN-ELISA) / Binding of serum 37 to looped/cyclic peptide (PEPSCAN-ELISA) / Binding of serum 37 to looped/cyclic peptides of protein X1 of SARS-CoV Urbani / Binding of serum 6 to linear peptides of protein X2 / Binding of serum 37 to linear peptides of protein X2 / Binding of serum 37 to looped/cyclic peptides of protein X2 of SARS-CoV Urbani / Binding of serum 6 to linear peptides of protein M of SARS-CoV Urbani / Binding of serum 37 to linear peptides of protein M of SARS-CoV Urbani / Binding of serum 6 to looped/cyclic peptides of protein M of SARS-CoV Urbani / Binding of serum 37 to looped/cyclic peptides of protein M of SARS-CoV Urbani / Binding of serum 6 to linear peptides of protein X3 of SARS-CoV Urbani / Binding of serum 37 to linear peptides of protein X3 of SARS-CoV Urbani / Binding of serum 37 to looped/cyclic peptides of protein X3 of SARS-CoV Urbani / Binding of serum 6 to linear peptides of protein X4 of SARS-CoV Urbani / Binding of serum 37 to linear peptides of protein X4 of SARS-CoV Urbani / Binding of serum 37 to looped/cyclic peptides of protein X4 of SARS-CoV Urbani / Binding of serum 6 to linear peptides of protein X5 of SARS-CoV Urbani / Binding of serum 37 to linear peptides of protein X5 of SARS-CoV Urbani / Binding of serum 37 to looped/cyclic peptides of protein X5 of SARS-CoV Urbani / Binding of serum 6 to linear peptides of protein N of SARS-CoV Urbani / Binding of serum 37 to linear peptides of protein N of SARS-CoV Urbani / Binding of serum 6 to linear peptide (PEPSCAN-ELISA) / Binding of serum 1a to looped/cyclic peptides of protein N of SARS-CoV Urbani / Binding of serum 1b to looped/cyclic peptides of protein N of SARS-CoV Urbani / Binding of serum 2 to looped/cyclic peptides of protein N of SARS-CoV Urbani / Binding of serum 6 to looped/cyclic peptides of protein N of SARS-CoV Urbani / Binding of serum 37 to looped/cyclic peptides of protein N of SARS-CoV Urbani / Binding of serum 62 to looped/cyclic peptides of protein N of SARS-CoV Urbani / Binding of serum London to looped/cyclic peptides of protein N of SARS-CoV Urbani / Binding of serum SARS-green to looped/cyclic peptides of protein N of SARS-CoV Urbani: unit not given here
[2] = tested on: rabbit serum obtained by immunizing a rabbit with the SARS-CoV strain Frankfurt 1; assay type: binding; set-up: Binding of a rabbit serum to linear peptides / Binding of a rabbit serum to looped peptides / Rabbit serum linear peptides / Rabbit serum looped peptides / Binding of a rabbit serum to linear peptides of protein N of SARS-CoV Urbani (Rabbit serum linear peptides) / Binding of a rabbit serum to looped/cyclic peptides of protein N of SARS-CoV Urbani (Rabbit serum looped peptides): unit not given here
[3] = tested on: recombinant human anti-SARS-CoV antibody 03-018; assay type: binding; set-up: Binding of antibody 03-018 to linear peptides of the N protein of SARS-CoV Urbani / Binding of antibody 03-018 to looped/cyclic peptides of the N protein of SARS-CoV Urbani: unit not given here
[4] = tested on: control sera (pooled serum of ten healthy LUMC hospital workers; commercial negative donor pooled serum from the Dutch bloodbank); assay type: binding, human; set-up: Binding of Control serum LUMC to linear peptides / Binding of Control serum Blood-bank to linear peptides / Binding of Control serum LUMC to looped peptides / Binding of Control Serum Blood-Bank to Looped peptides / Binding of Control serum LUMC to linear peptides of the protein M of SARS-CoV Urbani / Binding of Control serum Blood-bank to linear peptides of the protein M of SARS-CoV Urbani / Binding of Control serum LUMC to looped peptides of the protein M of SARS-CoV Urbani / Binding of Control Serum Blood-Bank to Looped peptides of the protein M of SARS-CoV Urbani: unit not given here

Sequence	Binding of serum 1a to linear peptides of protein N of SARS-CoV Urbani [1]	Binding of serum 1a to looped/cyclic peptides of protein N of SARS-CoV Urbani [1]	Binding of serum 1b to linear peptides of protein N of SARS-CoV Urbani [1]	Binding of serum 1b to looped/cyclic peptides of protein N of SARS-CoV Urbani [1]	Binding of serum 2 to linear peptides of protein N of SARS-CoV Urbani [1]	Binding of serum 2 to looped/cyclic peptides of protein N of SARS-CoV Urbani [1]	Binding of serum 6 to looped/cyclic peptides of protein N of SARS-CoV Urbani [1]	Binding of serum 37 to looped/cyclic peptides of protein N of SARS-CoV Urbani [1]	Binding of serum 62 to looped/cyclic peptides of protein N of SARS-CoV Urbani [1]	Binding of serum London to looped/cyclic peptides of protein N of SARS-CoV Urbani [1]	Binding of serum SARS-green to looped/cyclic peptides of protein N of SARS-CoV Urbani [1]	Binding of serum SARS-yellow to looped/cyclic peptides of protein N of SARS-CoV Urbani [1]	Binding of antibody 03-018 to linear peptides of the N protein of SARS-CoV Urbani [3]	Binding of antibody 03-018 to looped/cyclic peptides of the N protein of SARS-CoV Urbani [3]	Binding of Control Serum Blood-Bank to Looped peptides [4]	Binding of Control serum Blood-bank to linear peptides [4]	Binding of Control serum LUMC to linear peptides [4]	Binding of Control serum LUMC to looped peptides [4]	Binding of a rabbit serum to linear peptides of protein N of SARS-CoV Urbani (Rabbit serum linear peptides) [2]	Binding of a rabbit serum to looped/cyclic peptides of protein N of SARS-CoV Urbani (Rabbit serum looped peptides) [2]	further results
GPDDQIGYYRRATRR	0.2	0.4	0.1	0.3	0.2	0.5	0.4	0.8	0.8	0.5	0.6	0.9	0.1	0.3	0.9	0.8	0.8	0.9	–	–	Binding of serum 6 to linear peptides of protein N of SARS-CoV Urbani [1]: 0.2; Binding of serum 37 to linear peptides of protein N of SARS-CoV Urbani [1]: 0.6; Binding of serum 62 to linear peptides of protein N of SARS-CoV Urbani [1]: 0.6; Binding of serum London to linear peptides of protein N of SARS-CoV Urbani [1]: 0.4; Binding of serum SARS-green to linear peptides of protein N of SARS-CoV Urbani [1]: 0.3; Binding of serum SARS-yellow to linear peptides of protein N of SARS-CoV Urbani [1]: 0.6; Recognition of the peptide by the rabbit serum [2]: recognized
GPEASLPYGANKEGI	0.3	0.3	0.2	0.2	0.3	0.4	0.2	0.6	0.5	0.4	0.5	0.3	0.1	0.2	0.6	0.9	0.9	0.8	0.1	0.3	Binding of serum 6 to linear peptides of protein N of SARS-CoV Urbani [1]: 0.3; Binding of serum 37 to linear peptides of protein N of SARS-CoV Urbani [1]: 0.8; Binding of serum 62 to linear peptides of protein N of SARS-CoV Urbani [1]: 0.9; Binding of serum London to linear peptides of protein N of SARS-CoV Urbani [1]: 0.6; Binding of serum SARS-green to linear peptides of protein N of SARS-CoV Urbani [1]: 0.7; Binding of serum SARS-yellow to linear peptides of protein N of SARS-CoV Urbani [1]: 0.6
GRNGARPKQRRPQGL	0.2	0.2	0.1	0.1	0.2	0.2	0.2	0.4	0.3	0.3	0.2	0.3	0.1	0.2	0.5	0.7	0.6	0.5	0.2	0.7	Binding of serum 6 to linear peptides of protein N of SARS-CoV Urbani [1]: 0.2; Binding of serum 37 to linear peptides of protein N of SARS-CoV Urbani [1]: 0.7; Binding of serum 62 to linear peptides of protein N of SARS-CoV Urbani [1]: 0.6; Binding of serum London to linear peptides of protein N of SARS-CoV Urbani [1]: 0.4; Binding of serum SARS-green to linear peptides of protein N of SARS-CoV Urbani [1]: 0.4; Binding of serum SARS-yellow to linear peptides of protein N of SARS-CoV Urbani [1]: 0.4
GRRGPEQTQGNFGDQ	–	0.4	–	0.3	–	0.4	0.2	0.5	0.6	0.5	0.4	0.5	0.1	0.2	0.6	0.6	0.6	0.6	0.1	0.2	Recognition of the peptide by sera of SARS-CoV infected individuals, and form (linear, looped/cyclic) in which it is recognized [1]: recognized in linear form
GSRGGSQASSRSSSR	–	0.6	–	0.8	–	0.7	0.5	0.9	0.7	0.7	1.2	1.6	0.1	0.2	1.1	0.7	0.7	0.7	0.3	0.6	Binding of serum 1a to linear peptide (PEPSCAN-ELISA) [1]: 0.3; Binding of serum 1b to linear peptide (PEPSCAN-ELISA) [1]: 0.1; Binding of serum 2 to linear peptide (PEPSCAN-ELISA) [1]: 0.3; Binding of serum 6 to linear peptide (PEPSCAN-ELISA) [1]: 0.4; Binding of serum 37 to linear peptide (PEPSCAN-ELISA) [1]: 0.7; Binding of serum 62 to linear peptide (PEPSCAN-ELISA) [1]: 0.8; Binding of serum London to linear peptide (PEPSCAN-ELISA) [1]: 0.5; Binding of serum SARS-green to linear peptide (PEPSCAN-ELISA) [1]: 0.2; Binding of serum SARS-yellow to linear peptide (PEPSCAN-ELISA) [1]: 0.8

Source: patent US20070128217A1 (priority 2003, published 2007)
